The text below walks through data of patent publication US20130029942A1, “COMPOUNDS AND THERAPEUTICAL USES THEREOF” (Myrexis, Inc., priority 2003, published 2013).

Like-named read-outs stand apart in the source and are kept apart here.

This assay relates to T-47D cells. The assay can be described thus: Caspase cascade activation / induction of apoptosis in T-47D cells (fluorogenic N-(Ac-DEVD)-N'-ethoxycarbonyl-R110 substrate). In kind it is cell-based, human. The note with it: for EC50: Homo sapiens, T47D.
Where [1] appears, read: T-47D, 24 hr, read-out: T-47D (24 hr) EC50.
Setting [2] is: T-47D, 48 hr, read-out: T-47D (48 hr) EC50.
[3] abbreviates: T-47D, 48 hr, benzohydrazide table, read-out: T-47D (48 hr) EC50.
[4] abbreviates: T-47D, 48 hr, benzohydrazide table.
The mark [5] stands for this setting: 24 h, read-out: T-47D (24 hr) EC50 (nM).

By EC50 is commonly meant the concentration needed to bring the measured effect to its halfway point. Consider `COc1ccc(N(C)c2nc(CCl)nc3ccccc23)cc1` [Example 73, (2-Chloromethyl-quinazolin-4-yl)-(4-methoxy-phenyl)-methyl-amine], for which the EC50 is, setting by setting: under setting [1], 679 nM; under setting [2], 543 nM.

With `CN(c1ccc(Cl)cc1)c1nc(Cl)nc2ccccc12` [Example 3, (2-Chloro-quinazolin-4-yl)-(4-chloro-phenyl)-methyl-amine], the EC50 under setting [1] stood at 79 nM.

Consider `CNc1nc(N(C)c2ccc(OC)cc2)c2ccccc2n1` [Example 123, (2-Methylamino-quinazolin-4-yl)-(4-methoxy-phenyl)-methyl-amine], for which, under setting [1], the EC50 turned out to be 8 nM.

On to `COc1ccc(Nc2nc(Cl)nc3ccccc23)cn1` [Example 28, (2-Chloro-quinazolin-4-yl)-(6-methoxy-pyridin-3-yl)-amine], for which the EC50 under setting [1] was above 10000 nM and the EC50 under setting [2] was above 10000 nM.

With `COc1ccc(Nc2nc(C)nc3ccccc23)cn1` [Example 95, (2-Methyl-quinazolin-4-yl)-(6-methoxy-pyridin-3-yl)-amine], the EC50 under setting [1] was above 10000 nM.

On to `CSc1nc(N(C)NC(=O)c2ccc(Cl)cc2)c2ccccc2n1`, for which, under setting [3], the EC50 is 138 nM. Besides, under setting [4], the “T-47D (48 hr) Ratio” value is 14.4.

Turning to `COc1ccc(N(C)c2nc(CO)nc3ccccc23)cc1` [Example 76], the EC50 runs as follows: under setting [1], 7 nM; under setting [2], 8 nM.

Turning to `COc1ccc(N(C)c2nc(C)nc3ccc(N)cc23)cc1` [Example 110, (6-Amino-2-methyl-quinazolin-4-yl)-(4-methoxy-phenyl)-methyl-amine], under setting [1], the EC50 came out at 7 nM.

As for `COc1ccc(N(C)c2nc(NCCO)nc3cc(OC)c(OC)cc23)cc1` [Example 50, N^2-(2-Hydroxyethyl)-N^4-(4-methoxy-phenyl)-N^4-methyl-6,7-dimethoxyquinazoline-2,4-diamine], the EC50 under setting [2] is above 10000 nM.

In the case of `COc1ccc(N(C)c2nc(C)nc3ncccc23)cc1` [Example 92, (4-Methoxy-phenyl)-(2-methyl-pyrido[2,3-d]pyrimidin-4-yl)-methyl-amine], under setting [1], the EC50 worked out at 16 nM.

As to `COc1ccc(N(C)c2nc(Cl)nc3cc(Cl)ccc23)cc1` [Example 62, (2,7-Dichloro-quinazolin-4-yl)-(4-methoxy-phenyl)-methyl-amine], the EC50 under setting [2] is 316 nM.

In the case of `CCc1ccc(N(C)c2nc(C)nc3ccccc23)cc1` [Example 87, (4-Ethyl-phenyl)-(2-methyl-quinazolin-4-yl)-methyl-amine], under setting [1], the EC50 was 25 nM.

With `COc1ccc(N(C)c2nc(NCCO)nc3ccccc23)cn1` [Example 48, N^2-(2-Hydroxyethyl)-N^4-(6-methoxypyridin-3-yl)-N^4-methyl-quinazoline-2,4-diamine], the EC50 under setting [2] was found to be 137 nM.

`[2H]c1c([2H])c(N(C)c2nc(C)nc3ccccc23)c([2H])c([2H])c1OC` [Example 108, (4-Methoxy-phenyl-2,3,5,6-d4)-(2-methyl-quinazolin-4-yl)-methyl-amine]: under setting [5], the EC50 worked out at 1 nM.

For `COc1cc(OC)c(Nc2nc(C)nc3ccccc23)c(OC)c1` [Example 82, (2-Methyl-quinazolin-4-yl)-(2,4,6-trimethoxy-phenyl)-amine], the concentration giving a half-maximal response (EC50) under setting [1] was above 10000 nM.

With `COc1ccc(N(C)c2nc(C)nc3cc(N=[N+]=[N-])ccc23)cc1` [Example 114, (7-Azido-2-methyl-quinazolin-4-yl)-(4-methoxy-phenyl)-methyl-amine], the EC50 under setting [1] was 130 nM.

Take `COc1ccc(N(C)c2nc(-c3ccccc3)nc3ccccc23)cc1` [Example 83, (4-Methoxy-phenyl)-(2-phenyl-quinazolin-4-yl)-methyl-amine]: the EC50 under setting [2] came out at 168 nM.

With `Cc1nc(Nc2ccc(OC(F)F)cc2)c2ccccc2n1` [Example 78, (4-Difluoromethoxy-phenyl)-(2-methyl-quinazolin-4-yl)-amine], under setting [1], the concentration giving a half-maximal response (EC50) was above 10000 nM.

With `CCCOc1ccc(N(C)c2nc(Cl)nc3ccccc23)cc1` [Example 70, (2-Chloro-quinazolin-4-yl)-(4-propoxy-phenyl)-methyl-amine], the EC50 under setting [2] turned out to be 42 nM.

Consider `Cc1nc(N(C)c2ccc(C(=O)O)cc2)c2ccccc2n1` [Example 116, 4-(N-Methyl-N-(2-methylquinazolin-4-yl)amino)benzoic Acid], for which the EC50 under setting [1] is above 10000 nM.

As to `CC(C)=CCC/C(C)=C/CNc1nc(N(C)c2ccc(C)cc2)c2ccccc2n1` [Example 16, N^2-(3,7-Dimethyl-octa-2,6-dienyl)-N^4-(4-methyl-phenyl)-N^4-methyl-quinazoline-2,4-diamine], under setting [1], the EC50 turned out to be 296 nM.

Consider `COc1ccc(N(C)c2nc(OC(C)C)nc3cccc(Cl)c23)cc1` [Example 64, (5-Chloro-2-isopropoxy-quinazolin-4-yl)-(4-methoxy-phenyl)-methyl-amine], for which the EC50 under setting [2] is above 10000 nM.

Turning to `COc1cccc(Nc2nc(Cl)nc3ccccc23)c1OC` [Example 29, (2-Chloro-quinazolin-4-yl)-(2,3-dimethoxy-phenyl)-amine], the EC50 under setting [2] was above 10000 nM.

Turning to `Cc1ccc(Nc2nc(Cl)nc3ccccc23)cc1` [Example 8, (2-Chloro-quinazolin-4-yl)-(4-methyl-phenyl)-amine], under setting [1], the EC50 is above 10000 nM.

Turning to `COc1ccc(N(C)c2nc(C)nc3ccccc23)c(F)c1` [Example 99, (2-Fluoro-4-methoxy-phenyl)-(2-methyl-quinazolin-4-yl)-methyl-amine], the EC50 under setting [1] is 4 nM.

With `COc1ccc(N(C)c2nc(C(=O)O)nc3ccccc23)cc1` [Example 118, 4-(N-(4-Methoxy-phenyl)-N-methylamino)quinazoline-2-carboxylic acid], under setting [1], the EC50 was above 10000 nM.

With `COc1ccc(N(C)c2nc(NCCc3c[nH]cn3)nc3ccccc23)cc1` [Example 46, N^2-[2-(1H-Imidazol-4-yl)-ethyl]-N^4-(4-methoxy-phenyl)-N^4-methyl-quinazoline-2,4-diamine], the EC50 is 2180 nM under setting [1] and 2270 nM under setting [2].

Consider `COc1ccc(N(C)c2nc(NO)nc3ccccc23)cc1` [Example 10, N^2-Hydroxyl-N^4-(4-methoxy-phenyl)-N^4-methyl-quinazoline-2,4-diamine], for which the EC50 under setting [2] amounted to 48 nM.

Consider `Cc1nc(Nc2ccncc2)c2ccccc2n1` [Example 135, (2-Methyl-quinazolin-4-yl)-(pyridin-4-yl)-amine], for which the EC50 under setting [1] was above 10000 nM.

As for `CSc1nc(N(C)NC(=O)c2ccccc2)c2ccccc2n1`, under setting [3], the EC50 was determined as 149 nM. Moreover, the “T-47D (48 hr) Ratio” value under setting [4] is 14.7.

With `COc1ccc(Nc2nc(Cl)nc3ccccc23)c(OC)c1` [Example 30, (2-Chloro-quinazolin-4-yl)-(2,4-dimethoxy-phenyl)-amine], the half-maximal effective concentration (EC50) under setting [2] was above 10000 nM.

On to `COc1ccc(Nc2nc(C)nc3ccccc23)cc1F` [Example 79, (3-Fluoro-4-methoxy-phenyl)-(2-methyl-quinazolin-4-yl)-amine], for which the EC50 under setting [1] was above 10000 nM.

On to `COc1ccc(Oc2ncnc3ccccc23)cc1` [Example 71, 4-(4-Methoxy-phenoxy)-quinazoline], for which, under setting [2], the EC50 came out at 2260 nM.

Consider `COc1ccc(N(C)c2nc(Cl)nc3ccc(C)cc23)cc1` [Example 56, (2-Chloro-6-methyl-quinazolin-4-yl)-(4-methoxy-phenyl)-methyl-amine], for which the EC50 under setting [2] stood at 5 nM.

In the case of `COc1ccc(N(C)c2nc(C)nc3ccccc23)nn1` [Example 125, (6-Methoxy-pyridazin-3-yl)-(2-methyl-quinazolin-4-yl)-methyl-amine], the EC50 under setting [1] was determined as 385 nM.

With `CCOc1ccc(N(C)c2nc(C)nc3ccccc23)cc1` [Example 107, (4-Ethoxy-phenyl)-(2-methyl-quinazolin-4-yl)-methyl-amine], the EC50 under setting [1] was found to be 5 nM.

For `COc1ccc(N(C)c2nc(NC/C=C(\C)CCC=C(C)C)nc3cc(OC)c(OC)cc23)cc1` [Example 24, 6,7-Dimethoxy-N^2-(3,7-dimethyl-octa-2,6-dienyl)-N^4-(4-methoxy-phenyl)-N^4-methyl-quinazoline-2,4-diamine], the concentration giving a half-maximal response (EC50) runs as follows: under setting [1], above 10000 nM; under setting [2], 9460 nM.

Turning to `CSc1nc(N(C)NC(=O)c2cccs2)c2ccccc2n1`, under setting [3], the EC50 is 737 nM. Moreover, the “T-47D (48 hr) Ratio” value under setting [4] turned out to be 10.1.

In the case of `COc1ccc2c(ccn2-c2nc(Cl)nc3ccccc23)c1` [Example 9, 2-Chloro-4-(5-methoxyindol-1-yl)quinazoline], the EC50 under setting [2] was above 10000 nM.

With `COc1ccc(N(C)c2nc(N)nc3ccccc23)cn1` [Example 49, N^4-(6-methoxypyridin-3-yl)-N^4-methyl-quinazoline-2,4-diamine], the EC50 amounted to 29 nM under setting [1] and 22 nM under setting [2].

Regarding `COc1ccc(Nc2nc(C)nc3ccccc23)c(F)c1` [Example 96, (2-Fluoro-4-methoxy-phenyl)-(2-methyl-quinazolin-4-yl)-amine], the EC50 under setting [1] is above 10000 nM.

For the compound `COc1ccc(N(C)c2nc(NCCO)nc3ccccc23)cc1` [Example 11, N^2-(2-Hydroxylethyl)-N^4-(4-methoxy-phenyl)-N^4-methyl-quinazoline-2,4-diamine], the EC50 is 8 nM under setting [1] and 10 nM under setting [2].

As for `COc1ccc(N(C)c2ccnc3ccccc23)cc1` [Example 66, (4-Methoxy-phenyl)-methyl-(quinolin-4-yl)-amine], the EC50 reads like this: under setting [1], 18 nM; under setting [2], 22 nM.

In the case of `Cc1nc(N(C)c2c(Br)cc(N)cc2Br)c2ccccc2n1` [Example 103, (4-Amino-2,6-dibromo-phenyl)-(2-methyl-quinazolin-4-yl)-methyl-amine], the EC50 under setting [1] was 552 nM.

For the compound `COc1ccc(N(C)c2nc(C)nc3cc([N+](=O)[O-])ccc23)cc1` [Example 112, (4-Methoxy-phenyl)-methyl-(2-methyl-7-nitro-quinazolin-4-yl)-amine], under setting [5], the 50% effective concentration (EC50) was above 10000 nM.

With `COc1ccc(N(C)c2nc(CF)nc3ccccc23)cc1` [Example 55, (2-Fluoromethyl-quinazolin-4-yl)-(4-methoxy-phenyl)-methyl-amine], the EC50 under setting [2] stood at 1 nM.

For `COc1ccc(N(C)c2nc(Cl)nc3c(Cl)cccc23)cc1` [Example 89, (2,8-Dichloro-quinazolin-4-yl)-(4-methoxy-phenyl)-methyl-amine], the EC50 under setting [2] is 24 nM.
